Test [1] concerns the target T1, glucagon receptor (GCGR) overexpressed CHO-K1 cells or human primary hepatocytes (Homo sapiens, UniProt P47871).
T1 construct: expressed in transfected cells; host or cells: GCGR overexpressed CHO-K1 cells or human primary hepatocytes (endogenous receptor)
Nature of the test: Glucagon cAMP inhibition assay (Cisbio cAMP Dynamic 2 HTRF). The test is classed as cell-based. Summed up:
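HTRF read-out of glucagon-induced cAMP, with IC50 from non-linear regression. Cells (GCGR CHO-K1 or human primary hepatocytes) in HBSS/0.1% BSA/800 nM IBMX took compound dilutions for 30 min (final DMSO 1%), then EC50-level glucagon for 30 min at room temperature, then a 60 min lysis/detection step.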
(TR-FRET usually uses a lanthanide donor and a delayed reading to cut background.)

For test [2], the target named is T2, glucagon receptor (GCGR) (Homo sapiens, UniProt P47871).
T2 construct: expressed in transfected cells; host or cells: CHO-K1 cells overexpressing GCGR (membrane fractions)
Kind of test: I125-glucagon binding assay (competition, GCGR membrane fractions). The gist of the method: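 Competition of 0.0625 nM (final) I^125-glucagon for 30 min at 25° C, after 5 min compound preincubation, using 7.5 μg/well GCGR-overexpressing CHO-K1 membranes in 50 mM Tris pH 7.4, 0.5% BSA. Filtration onto PEI-coated GF/B, micro-beta counting, and non-linear regression gave IC50.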

Setting [3] is: inhibition of glucagon (EC50 concentration) induced cAMP production.
Setting [4] is: competition with I125-glucagon 0.0625 nM, membrane fractions of GCGR overexpressed CHO-K1 cells.

As a reminder, the IC50 is the point on the concentration scale where inhibition reaches its midpoint.

Like-named read-outs stand apart in the source and are kept apart here.

T1 sequence (P47871 26-477): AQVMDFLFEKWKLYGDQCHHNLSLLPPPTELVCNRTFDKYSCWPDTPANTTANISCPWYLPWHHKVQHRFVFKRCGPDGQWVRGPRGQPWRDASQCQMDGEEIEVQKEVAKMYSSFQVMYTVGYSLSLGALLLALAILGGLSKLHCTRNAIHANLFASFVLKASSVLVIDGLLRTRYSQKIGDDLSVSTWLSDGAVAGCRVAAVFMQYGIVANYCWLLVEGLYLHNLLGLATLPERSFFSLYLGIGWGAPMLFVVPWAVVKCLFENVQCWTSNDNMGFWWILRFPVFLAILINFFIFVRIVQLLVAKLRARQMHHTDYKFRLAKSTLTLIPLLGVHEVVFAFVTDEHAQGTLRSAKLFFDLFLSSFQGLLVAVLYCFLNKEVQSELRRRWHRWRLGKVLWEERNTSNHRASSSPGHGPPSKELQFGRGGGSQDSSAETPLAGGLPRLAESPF
T2 sequence (P47871 26-477): as above

Regarding `CC(C)C[C@@H](COc1cc(F)c(-c2ccc(C(F)(F)F)cc2)c(F)c1)Nc1ccc(C(=O)NCCC(=O)O)cn1` [Compound 9-4, (S)-3-(6-((1-((2,6-difluoro-4′-(trifluoromethyl)-[1,1′-biphenyl]-4-yl)oxy)-4-methylpentan-2-yl)amino)nicotinamido)propanoic Acid], the “IC50 cAMP” value in test [1] (setting [3]) is 2.3 µM. In addition, the IC50 in test [2] (setting [4]) came to 1.67 µM.

Take `CC(C)[C@@H](COc1ccc(-c2ccc(C(F)(F)F)cc2F)c(F)c1)Nc1ccc(C(=O)NCCS(=O)(=O)O)cc1` [Compound 8-2, (S)-2-(4-((1-((2,2′-difluoro-4′-(trifluoromethyl)-[1,1′-biphenyl]-4-yl)oxy)-3-methylbutan-2-yl)amino)benzamido)ethane-1-sulfonic Acid]: in test [1] (setting [3]), the “IC50 cAMP” value amounted to 12.144 µM. This compound returned an IC50 in test [2] (setting [4]) of 1.71 µM.

For the compound `CC(C)[C@@H](COc1ccc(-c2cc3ccccc3o2)cn1)Nc1ccc(C(=O)NCCC(=O)O)cn1` [Compound 16-2, (S)-3-(6-((1-((5-(benzofuran-2-yl)pyridin-2-yl)oxy)-3-methylbutan-2-yl)amino)nicotinamido)propanoic Acid], the “IC50 cAMP” value in test [1] (setting [3]) came out at 0.2393 µM. The compound also came in with an IC50 in test [2] (setting [4]) of 0.528 µM.

Regarding `CC(C)[C@@H](COc1ccc(-c2ccc(C(F)(F)F)cc2F)cc1)Nc1ccc(C(=O)NCCS(=O)(=O)O)cc1` [Compound 1-33, (S)-2-(4-((1-((2′-fluoro-4′-(trifluoromethyl)-[1,1′-biphenyl]-4-yl)oxy)-3-methylbutan-2-yl)amino)benzamido)ethane-1-sulfonic Acid], in test [1] (setting [3]), the “IC50 cAMP” value is 3.767 µM. For the same compound, the IC50 in test [2] (setting [4]) turned out to be 1.9 µM.

`CC(C)[C@@H](COc1cc(F)c(-c2ccc(C(F)(F)F)cc2)c(F)c1)Nc1ccc(C(=O)NCCC(=O)O)cc1` [Compound 7-3, (S)-3-(4-((1-((2,6-difluoro-4′-(trifluoromethyl)-[1,1′-biphenyl]-4-yl)oxy)-3-methylbutan-2-yl)amino)benzamido)propanoic Acid]: the “IC50 cAMP” value in test [1] (setting [3]) was determined as 0.14 µM. In test [2] (setting [4]), this compound returned an IC50 of 0.107 µM.

Take `CC(C)C[C@H](Nc1ccc(C(=O)NCCC(=O)O)cc1)C(=O)Nc1ccc(-c2ccc(C(F)(F)F)cc2)cc1` [Compound 23-4, (S)-3-(4-((4-methyl-1-oxo-1-((4′-(trifluoromethyl)-[1,1′-biphenyl]-4-yl)amino)pentan-2-yl)amino)benzamido)propanoic Acid]: the “IC50 cAMP” value in test [1] stood at 3.2 µM. The compound also yielded an IC50 in test [2] of 0.269 µM.

Take `CCOC(=O)CCNC(=O)c1ccc(N[C@@H](Cc2cccc3ccccc23)C(=O)Nc2ccc(-c3cc4ccccc4o3)cc2)cc1` [Compound 23-13, Ethyl (S)-3-(4-((1-((4-(benzofuran-2-yl)phenyl)amino)-3-(naphthalen-1-yl)-1-oxopropan-2-yl)amino)benzamido)propanoate]: the “IC50 cAMP” value in test [1] (uM) was above 10 µM. Also, in test [2] (uM), the IC50 was above 10 µM.

With `C[C@@H](Cc1ccc(-c2ccc(C(C)(C)C)cc2)cc1)Nc1ccc(C(=O)NCCC(=O)O)cc1` [Compound 19-4, (S)-3-(4-((1-(4′-(tert-butyl)-[1,1′-biphenyl]-4-yl)propan-2-yl)amino)benzamido)propanoic Acid], the “IC50 cAMP” value in test [1] is 3.488 µM. Also, the IC50 in test [2] came out at 1.63 µM.

`CC(C)(C)[C@@H](COc1ccc(-c2ccc(Cl)cc2Cl)c(F)c1)Nc1ccc(C(=O)NCCC(=O)O)cc1` [Compound 8-22, (S)-3-(4-((1-((2′,4′-dichloro-2-fluoro-[1,1′-biphenyl]-4-yl)oxy)-3,3-dimethylbutan-2-yl)amino)benzamido)propanoic Acid]: the “IC50 cAMP” value in test [1] (setting [3]) was found to be 0.1669 µM. The compound further yielded an IC50 in test [2] (setting [4]) of 0.068 µM.

Consider `CC(C)(C)c1ccc(NC(=O)[C@H](Cc2cccc3ccccc23)Nc2ccc(C(=O)NCCC(=O)O)cc2)cc1` [Compound 23-18, (S)-3-(4-((1-((4-(tert-butyl)phenyl)amino)-3-(naphthalen-1-yl)-1-oxopropan-2-yl)amino)benzamido)propanoic Acid], for which, in test [1], the “IC50 cAMP” value amounted to 4.7 µM. In test [2], the IC50 is 1.87 µM.

For the compound `CC(C)C[C@H](Cc1ccc(-c2cc3ccccc3o2)cc1)Nc1ccc(C(=O)NCCC(=O)O)cc1` [Compound 19-5, (R)-3-(4-((1-(4-(benzofuran-2-yl)phenyl)-4-methylpentan-2-yl)amino)benzamido)propanoic Acid], the “IC50 cAMP” value in test [1] stood at 1.082 µM. The compound also had an IC50 in test [2] of 0.163 µM.

Take `CC[C@H](C)[C@@H](COc1ccc(-c2ccc(C(F)(F)F)cc2F)c(OC)c1)Nc1ccc(C(=O)NCCC(=O)O)cc1` [Compound 13-4]: the “IC50 cAMP” value in test [1] (setting [3]) came to 0.131 µM. For the same compound, the IC50 in test [2] (setting [4]) was determined as 0.068 µM.

As for `CC(C)[C@@H](COc1cc(F)c(-c2ccc(Cl)cc2Cl)c(F)c1)Nc1ccc(C(=O)NCCC(=O)O)cc1` [Compound 7-11, (S)-3-(4-((1-((2′,4′-dichloro-2,6-difluoro-[1,1′-biphenyl]-4-yl)oxy)-3-methylbutan-2-yl)amino)benzamido)propanoic Acid], in test [1] (setting [3]), the “IC50 cAMP” value is 0.209 µM. In addition, the IC50 in test [2] (setting [4]) worked out at 0.074 µM.

Take `CC[C@H](C)[C@@H](COc1ccc(-c2ccc(F)cc2F)nn1)Nc1ccc(C(=O)NCCC(=O)O)cc1` [Compound 17-6, 3-(4-(((2S,3S)-1-((6-(2,4-difluorophenyl)pyridazin-3-yl)oxy)-3-methylpentan-2-yl)amino)benzamido)propanoic Acid]: in test [1] (setting [3]), the “IC50 cAMP” value is 10.157 µM. The compound also registered a half-inhibitory concentration (IC50) in test [2] (setting [4]) of 0.445 µM.

In the case of `CC(C)[C@@H](COc1ccc(-c2cc3ccccc3o2)cc1)Nc1cnc(C(=O)NCCC(=O)O)cn1` [Compound 9-1, (S)-3-(5-((1-(4-(benzofuran-2-yl)phenoxy)-3-methylbutan-2-yl)amino)pyrazino-2-carboxamido)propanoic Acid], the “IC50 cAMP” value in test [1] (setting [3]) came to 0.3861 µM. Moreover, the IC50 in test [2] (setting [4]) stood at 0.125 µM.

For `CCCOC[C@H](Cc1ccc(-c2ccc(Cl)cc2Cl)cc1)Nc1ccc(C(=O)NCCC(=O)O)cc1` [Compound 19-15, (S)-3-(4-((1-(2′,4′-dichloro-[1,1′-biphenyl]-4-yl)-3-propoxypropan-2-yl)amino)benzamido)propanoic Acid], the “IC50 cAMP” value in test [1] worked out at 2.029 µM. The compound further yielded an IC50 in test [2] of 2.67 µM.

Regarding `Cc1cc(OC[C@H](CC(C)C)Nc2ccc(C(=O)NCCC(=O)O)cc2)cc(C)c1-c1ccc(OC(F)(F)F)cc1` [Compound 2-3, (S)-3-(4-((1-((2,6-dimethyl-4′-(trifluoromethoxy)-[1,1′-biphenyl]-4-yl)oxy)-4-methylpentan-2-yl)amino)benzamido)propanoic Acid], in test [1] (setting [3]), the “IC50 cAMP” value was 0.493 µM. The compound further displayed an IC50 in test [2] (setting [4]) of 0.465 µM.

`CC(C)[C@@H](COc1ccc(-c2ccc(C(F)(F)F)cc2)cn1)Nc1ccc(C(=O)NC[C@@H](O)C(=O)O)cc1` [Compound 15-8, (R)-2-hydroxy-3-(4-(((S)-3-methyl-1-((5-(4-(trifluoromethyl)phenyl)pyridin-2-yl)oxy)butan-2-yl)amino)benzamido)propanoic Acid]: the “IC50 cAMP” value in test [1] is above 30 µM. This compound also registered an IC50 in test [2] of 3.3 µM.

These data come from patent publication US11384060B2, “Amide compounds and use thereof” (ALPHALA CO., LTD., priority 2017, dated 2022).
